Reference: patent US8034548B2, “Methods and materials for assessing prostate cancer therapies” (The Regents of the University of California, priority 2003, dated 2011)

How the values were obtained:
LNCaP-AR cells [1] = test: Affymetrix U133A microarray of induced genes, AR-overexpressing cells; type: cell-based, human
[2] = tested on: LNCaP cells infected with the empty vector; test: in vitro growth in low androgen concentrations, vector control cells; type: cell-based, human; conditions: failed to grow unless supplemented
Excerpt: (§1) To determine if increased AR protein concentration plays a causal role in the HS-to-HR transition, we introduced an epitope-tagged wildtype AR cDNA by retrovirus infection into HS LNCaP human prostate cancer cells. A three-fold increase in AR levels in LNCaP-AR cells mimics the expression difference observed in the LNCaP HS/HR pair studied in the microarray experiment. To test whether increased AR expression causes the HS-to-HR transition, we designed two in vitro assays to mimic the clinical circumstances of HR disease. […] In contrast, LNCaP-AR cells grew in at least 80% lower concentrations of R1881.
(§2) Details of typical in vitro and in vivo growth experiments are as follows: LNCaP (ATCC) and LAPC4 cells were maintained in Iscove's medium supplemented with 10% fetal bovine serum. […] In vivo tumorigenicity was measured by injection of 5×10^5 LAPC4 or 1×10^6 LNCaP cells in 100 μl of Matrigel (Collaborative Biomedical) subcutaneously into the flanks of intact or castrated male SCID mice. Tumor size was measured weekly in three dimensions using caliber as described.^26 AR knockdown was performed by infection of HR LAPC4 with shRNA AR lentivirus. Tumors which grew in castrated mice were explanted, and analyzed by flow cytometry for the percentage of GFP-positive cells. […]

LNCaP-AR cells [3] = test: in vitro growth in low androgen concentrations, AR-overexpressing cells; type: cell-based, human; conditions: compared with 100 pM needed by vector cells
Excerpt: as §1, §2

[4] = molecular target: AR transcription complex on the promoters of PSA and KLK2 (Homo sapiens, UniProt P10275, T878A)
Sequence of AR transcription complex on the promoters of PSA and KLK2 (P10275 whole entry T878A, the tested form may be a part, one chain of several): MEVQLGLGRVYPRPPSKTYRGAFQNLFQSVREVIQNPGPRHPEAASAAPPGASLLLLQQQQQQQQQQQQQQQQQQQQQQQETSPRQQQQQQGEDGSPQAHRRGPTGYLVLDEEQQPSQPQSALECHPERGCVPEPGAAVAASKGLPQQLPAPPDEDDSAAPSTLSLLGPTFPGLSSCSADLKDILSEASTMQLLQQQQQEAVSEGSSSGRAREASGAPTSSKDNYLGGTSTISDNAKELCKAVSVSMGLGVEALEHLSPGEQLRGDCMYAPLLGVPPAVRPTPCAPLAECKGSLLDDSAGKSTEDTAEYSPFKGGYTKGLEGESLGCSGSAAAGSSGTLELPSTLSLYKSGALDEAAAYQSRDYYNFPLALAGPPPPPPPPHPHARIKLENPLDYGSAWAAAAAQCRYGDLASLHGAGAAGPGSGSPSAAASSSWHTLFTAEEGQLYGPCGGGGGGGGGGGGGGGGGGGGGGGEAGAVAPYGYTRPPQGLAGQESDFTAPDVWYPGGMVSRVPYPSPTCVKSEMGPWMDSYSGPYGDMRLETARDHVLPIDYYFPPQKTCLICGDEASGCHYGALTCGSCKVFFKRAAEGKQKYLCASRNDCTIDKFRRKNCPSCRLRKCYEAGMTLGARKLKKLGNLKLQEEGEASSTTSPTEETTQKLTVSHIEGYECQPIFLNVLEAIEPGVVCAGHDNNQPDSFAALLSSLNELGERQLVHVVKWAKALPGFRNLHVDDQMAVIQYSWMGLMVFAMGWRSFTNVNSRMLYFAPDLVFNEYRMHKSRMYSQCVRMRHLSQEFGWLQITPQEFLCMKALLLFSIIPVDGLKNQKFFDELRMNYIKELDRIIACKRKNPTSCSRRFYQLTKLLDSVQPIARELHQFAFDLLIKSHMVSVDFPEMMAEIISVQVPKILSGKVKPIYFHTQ
Protocol: Soluble chromatin was prepared after formaldehyde crosslinking and sonication. Specific IgGs against AR, N—CoR, PolII, Ac—H3/4, SRC1, TIF2, AIB1, and PCAF were used to immunoprecipitate protein-bound DNA fragments.

SMILES | subset of the total number of androgen-regulated genes induced (LNCaP-AR cells [1]; LNCaP-AR, 10 μM bicalutamide) [%] | R1881 supplement needed for growth in steroid-depleted, charcoal-stripped serum [2] [pM] | lower concentration of R1881 in which cells grew (LNCaP-AR cells [3]) | total number of androgen-regulated genes (LNCaP-AR cells [1]; increasing doses of R1881) [probe sets] | recruitment of AR and polymerase II to PSA and KLK2 promoters [4]
CC(O)(CS(=O)(=O)c1ccc(F)cc1)C(=O)Nc1ccc(C#N)c(C(F)(F)F)c1 (centres unmarked) [bicalutamide] | < 10 | – | – | – | –
C[C@]1(O)CC[C@H]2[C@@H]3CCC4=CC(=O)CCC4=C3C=C[C@@]21C [R1881] | – | 100 | at least 80% | > 600 | AR and polymerase II were recruited to both promoters regardless of AR level
